Reference: US9340590B2 (priority 2011, dated 2016)
Where two headings read alike, the source gives them in different places. Positions of bridges follow the written chain, without caps; N, C: chain ends. Non-standard residues stand in square brackets, D forms with d. Residues, ends and D or L forms follow the SMILES beside them. Trp(1-Me) = Cn1cc(C[C@H](N)C(=O)O)c2ccccc21; Lys(Me) = CNCCCC[C@H](N)C(=O)O

Tests used:
Assay in all cases: cell-based
hNav1.5 = hNav1.5 (Homo sapiens, UniProt Q14524); settings: IonWorks Quattro, read-out: IWQ Use Nav1.5
Chain of hNav1.5 (Q14524 whole entry, looked up): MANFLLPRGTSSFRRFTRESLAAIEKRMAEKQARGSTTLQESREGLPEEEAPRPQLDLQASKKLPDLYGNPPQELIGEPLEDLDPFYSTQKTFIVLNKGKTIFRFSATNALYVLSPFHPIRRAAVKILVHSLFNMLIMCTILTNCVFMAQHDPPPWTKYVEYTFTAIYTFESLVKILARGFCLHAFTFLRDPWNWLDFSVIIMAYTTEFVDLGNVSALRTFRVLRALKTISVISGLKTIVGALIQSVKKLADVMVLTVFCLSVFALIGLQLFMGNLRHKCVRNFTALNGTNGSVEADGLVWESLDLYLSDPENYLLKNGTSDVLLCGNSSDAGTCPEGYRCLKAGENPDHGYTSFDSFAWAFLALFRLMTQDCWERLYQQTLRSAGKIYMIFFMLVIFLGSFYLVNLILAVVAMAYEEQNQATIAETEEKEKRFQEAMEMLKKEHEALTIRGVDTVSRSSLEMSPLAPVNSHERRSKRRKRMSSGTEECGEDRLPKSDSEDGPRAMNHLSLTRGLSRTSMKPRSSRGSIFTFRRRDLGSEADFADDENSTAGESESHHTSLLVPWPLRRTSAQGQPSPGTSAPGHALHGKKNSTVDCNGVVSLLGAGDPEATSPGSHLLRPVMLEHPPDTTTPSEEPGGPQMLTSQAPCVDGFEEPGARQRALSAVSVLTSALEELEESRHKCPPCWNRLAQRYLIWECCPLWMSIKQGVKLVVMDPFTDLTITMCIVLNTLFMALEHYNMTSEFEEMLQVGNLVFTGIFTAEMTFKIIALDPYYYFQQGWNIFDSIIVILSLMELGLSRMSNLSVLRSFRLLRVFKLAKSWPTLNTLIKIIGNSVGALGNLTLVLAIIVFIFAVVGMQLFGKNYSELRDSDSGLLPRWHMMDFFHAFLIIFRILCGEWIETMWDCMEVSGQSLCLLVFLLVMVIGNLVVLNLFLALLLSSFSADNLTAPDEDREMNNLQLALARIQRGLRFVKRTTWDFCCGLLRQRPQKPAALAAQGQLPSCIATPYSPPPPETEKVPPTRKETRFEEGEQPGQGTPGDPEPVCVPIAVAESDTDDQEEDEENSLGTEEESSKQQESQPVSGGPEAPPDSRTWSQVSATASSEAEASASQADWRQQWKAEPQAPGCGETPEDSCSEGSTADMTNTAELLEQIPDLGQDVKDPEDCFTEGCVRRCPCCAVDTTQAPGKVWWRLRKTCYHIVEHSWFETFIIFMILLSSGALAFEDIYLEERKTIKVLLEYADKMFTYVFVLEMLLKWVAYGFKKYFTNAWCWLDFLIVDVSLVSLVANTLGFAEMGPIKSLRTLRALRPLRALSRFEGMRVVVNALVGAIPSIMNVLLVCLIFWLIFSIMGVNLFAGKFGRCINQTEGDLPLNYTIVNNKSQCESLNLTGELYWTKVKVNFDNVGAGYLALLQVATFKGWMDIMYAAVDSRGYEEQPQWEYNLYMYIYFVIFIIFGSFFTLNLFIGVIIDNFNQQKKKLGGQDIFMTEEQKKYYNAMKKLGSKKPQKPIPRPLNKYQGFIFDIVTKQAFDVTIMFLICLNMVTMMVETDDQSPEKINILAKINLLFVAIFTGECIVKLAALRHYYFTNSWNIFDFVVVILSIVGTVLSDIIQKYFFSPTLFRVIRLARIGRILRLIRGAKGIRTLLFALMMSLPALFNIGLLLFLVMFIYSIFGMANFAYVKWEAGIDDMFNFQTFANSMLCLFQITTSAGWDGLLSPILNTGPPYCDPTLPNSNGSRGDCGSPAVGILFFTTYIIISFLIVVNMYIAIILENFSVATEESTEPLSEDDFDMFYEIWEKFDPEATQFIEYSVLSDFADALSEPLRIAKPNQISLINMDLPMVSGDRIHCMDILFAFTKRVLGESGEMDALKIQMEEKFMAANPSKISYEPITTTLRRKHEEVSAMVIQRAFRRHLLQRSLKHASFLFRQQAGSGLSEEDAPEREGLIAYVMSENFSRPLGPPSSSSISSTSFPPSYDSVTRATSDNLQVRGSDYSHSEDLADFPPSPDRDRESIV

hNav1.7 = hNav1.7 (Homo sapiens, UniProt Q15858); format: cell-based; settings: IonWorks Quattro, read-out: IWQ Use Nav1.7
Chain of hNav1.7 (Q15858 whole entry, looked up): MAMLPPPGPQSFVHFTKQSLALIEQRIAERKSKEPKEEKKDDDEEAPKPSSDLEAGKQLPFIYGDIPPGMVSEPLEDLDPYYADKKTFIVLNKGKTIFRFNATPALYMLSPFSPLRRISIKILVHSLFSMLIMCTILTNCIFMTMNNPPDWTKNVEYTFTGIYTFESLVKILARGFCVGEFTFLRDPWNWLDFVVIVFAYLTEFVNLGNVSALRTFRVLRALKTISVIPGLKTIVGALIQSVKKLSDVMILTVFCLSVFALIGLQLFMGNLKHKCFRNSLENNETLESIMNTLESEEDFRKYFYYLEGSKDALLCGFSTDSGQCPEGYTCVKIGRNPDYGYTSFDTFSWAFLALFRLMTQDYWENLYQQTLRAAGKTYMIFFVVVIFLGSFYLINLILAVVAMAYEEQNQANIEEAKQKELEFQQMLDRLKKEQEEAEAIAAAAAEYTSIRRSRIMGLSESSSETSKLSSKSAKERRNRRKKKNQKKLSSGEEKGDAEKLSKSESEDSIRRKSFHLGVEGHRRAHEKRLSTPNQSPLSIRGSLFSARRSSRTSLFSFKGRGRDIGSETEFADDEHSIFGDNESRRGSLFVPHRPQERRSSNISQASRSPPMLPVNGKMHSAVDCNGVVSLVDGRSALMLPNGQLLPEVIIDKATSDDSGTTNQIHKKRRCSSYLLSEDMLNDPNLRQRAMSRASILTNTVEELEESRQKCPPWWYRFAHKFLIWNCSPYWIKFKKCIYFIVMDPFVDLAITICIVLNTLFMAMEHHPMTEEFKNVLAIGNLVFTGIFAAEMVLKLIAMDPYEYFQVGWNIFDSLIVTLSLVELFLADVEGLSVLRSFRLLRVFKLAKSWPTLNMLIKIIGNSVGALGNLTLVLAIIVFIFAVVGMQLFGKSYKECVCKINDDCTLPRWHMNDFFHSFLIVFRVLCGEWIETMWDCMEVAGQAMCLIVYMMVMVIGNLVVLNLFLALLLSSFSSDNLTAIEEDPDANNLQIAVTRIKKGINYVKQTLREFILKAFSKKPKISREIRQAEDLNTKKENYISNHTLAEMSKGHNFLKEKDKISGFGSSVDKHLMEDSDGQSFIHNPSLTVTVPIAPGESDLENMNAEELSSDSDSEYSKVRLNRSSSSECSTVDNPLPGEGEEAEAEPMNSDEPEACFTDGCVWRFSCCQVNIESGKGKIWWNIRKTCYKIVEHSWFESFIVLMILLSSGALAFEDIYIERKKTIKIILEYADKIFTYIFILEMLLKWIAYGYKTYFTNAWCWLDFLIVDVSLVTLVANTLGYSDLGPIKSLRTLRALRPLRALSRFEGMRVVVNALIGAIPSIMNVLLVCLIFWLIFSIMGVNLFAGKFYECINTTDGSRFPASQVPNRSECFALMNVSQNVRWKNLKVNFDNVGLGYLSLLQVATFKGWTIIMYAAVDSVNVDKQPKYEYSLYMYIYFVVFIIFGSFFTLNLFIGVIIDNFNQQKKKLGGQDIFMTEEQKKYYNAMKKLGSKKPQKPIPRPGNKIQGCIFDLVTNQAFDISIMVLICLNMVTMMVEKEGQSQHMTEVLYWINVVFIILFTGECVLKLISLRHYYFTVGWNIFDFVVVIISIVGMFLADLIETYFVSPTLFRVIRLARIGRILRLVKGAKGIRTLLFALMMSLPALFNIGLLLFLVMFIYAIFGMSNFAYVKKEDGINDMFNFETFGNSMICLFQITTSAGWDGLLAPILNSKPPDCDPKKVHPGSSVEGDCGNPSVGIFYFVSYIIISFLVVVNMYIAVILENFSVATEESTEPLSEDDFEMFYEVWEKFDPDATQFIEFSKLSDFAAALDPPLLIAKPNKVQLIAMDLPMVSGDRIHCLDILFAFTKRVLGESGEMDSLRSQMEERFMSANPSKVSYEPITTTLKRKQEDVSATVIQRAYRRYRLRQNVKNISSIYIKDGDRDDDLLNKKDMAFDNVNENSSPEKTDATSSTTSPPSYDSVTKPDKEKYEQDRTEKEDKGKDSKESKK

hNav1.3 = hNav1.3 (Homo sapiens, UniProt Q9NY46); settings: IonWorks Quattro, read-out: IWQ Use Nav1.3

Structure (SMILES): CC[C@H](C)[C@@H]1NC(=O)[C@@H]2CSSC[C@@H]3NC(=O)[C@H](C(C)C)NC(=O)[C@H](CC(C)C)NC(=O)[C@H](CC(N)=O)NC(=O)[C@@H]4CCCN4C(=O)[C@H](CCCNC(=N)N)NC(=O)[C@H](CSSC[C@H](NC(=O)[C@@H](N)CC(=O)O)C(=O)N[C@@H](CC(C)C)C(=O)NCC(=O)N[C@@H](CCSC)C(=O)N[C@@H](CCSC)C(=O)N[C@@H](CCCNC(=N)N)C(=O)N[C@@H](CCCCN)C(=O)N2)NC(=O)[C@H](CSSC[C@@H](C(=O)N[C@@H](CCCCN)C(=O)N[C@@H](Cc2cn(C)c4ccccc24)C(=O)N[C@H](C(=O)N[C@@H](Cc2ccccc2)C(N)=O)C(C)C)NC(=O)[C@H](Cc2c[nH]c4ccccc24)NC(=O)[C@H](CCCCN)NC(=O)[C@H](Cc2c[nH]cn2)NC(=O)[C@H]([C@@H](C)O)NC(=O)[C@H](CCCNC(=N)N)NC(=O)[C@H](CO)NC3=O)NC(=O)[C@H](CCCCN)NC(=O)[C@H](CC(=O)O)NC(=O)[C@H](CC(N)=O)NC(=O)[C@H](CC(=O)O)NC(=O)[C@@H]2CCCN2C1=O [compound 693] (H-DCLGMMRKCIPDNDKCCRPNLVCSRTHKWCK[Trp(1-Me)]VF-NH2; disulfide 2-17, 9-23, 16-30)
- IC50 (hNav1.5; use-dependent protocol, hNav1.5): > 5000 nM
- IC50 (hNav1.7; use-dependent protocol, hNav1.7): 46 nM
- IC50 (hNav1.3; use-dependent protocol, hNav1.3): 100 nM

Structure (SMILES): CC[C@H](C)[C@@H]1NC(=O)[C@@H]2CSSC[C@@H]3NC(=O)[C@H](C(C)C)NC(=O)[C@H](CC(C)C)NC(=O)[C@H](CC(N)=O)NC(=O)[C@@H]4CCCN4C(=O)[C@H](CCCNC(=N)N)NC(=O)[C@H](CSSC[C@H](NC(=O)[C@@H](N)CC(=O)O)C(=O)N[C@@H](CC(C)C)C(=O)NCC(=O)N[C@@H](C)C(=O)N[C@@H](CC(C)C)C(=O)N[C@@H](CCCNC(=N)N)C(=O)N[C@@H](CCCCN)C(=O)N2)NC(=O)[C@H](CSSC[C@@H](C(=O)N[C@@H](CCCCN)C(=O)N[C@@H](Cc2ccc(O)cc2)C(=O)N[C@H](C(=O)N[C@@H](Cc2ccccc2)C(=O)O)C(C)C)NC(=O)[C@H](Cc2c[nH]c4ccccc24)NC(=O)[C@H](CCCNC(=N)N)NC(=O)[C@H](Cc2c[nH]cn2)NC(=O)[C@H]([C@@H](C)O)NC(=O)[C@H](CCCNC(=N)N)NC(=O)[C@H](CO)NC3=O)NC(=O)[C@H](CCCCN)NC(=O)[C@H](CC(=O)O)NC(=O)[C@H](CCCCN)NC(=O)[C@H](CC(=O)O)NC(=O)[C@@H]2CCCN2C1=O [compound 866] (H-DCLGALRKCIPDKDKCCRPNLVCSRTHRWCKYVF-OH; disulfide 2-17, 9-23, 16-30)
- IC50 (hNav1.5; use-dependent block, hNav1.5): > 5000 nM
- IC50 (hNav1.7; use-dependent block, hNav1.7): > 5000 nM
- IC50 (hNav1.3; use-dependent block, hNav1.3): 2300 nM

Structure (SMILES): CC[C@H](C)[C@H](NC(=O)[C@H](Cc1ccc(O)cc1)NC(=O)[C@H](CCCCN)NC(=O)[C@@H]1CSSC[C@@H]2NC(=O)[C@H](CCCCN)NC(=O)[C@H](CC(=O)O)NC(=O)[C@H](CC(N)=O)NC(=O)[C@H](CC(=O)O)NC(=O)[C@@H]3CCCN3C(=O)[C@H]([C@@H](C)CC)NC(=O)[C@@H]3CSSC[C@H](NC(=O)[C@H](C(C)C)NC(=O)[C@H](CC(C)C)NC(=O)[C@H](CC(N)=O)NC(=O)[C@@H]4CCCN4C(=O)[C@H](CCCNC(=N)N)NC(=O)[C@H](CSSC[C@H](NC(=O)[C@@H](N)CC(=O)O)C(=O)N[C@@H](CC(C)C)C(=O)NCC(=O)N[C@@H](Cc4ccccc4)C(=O)N[C@@H](CCSC)C(=O)N[C@@H](CCCNC(=N)N)C(=O)N[C@@H](CCCCN)C(=O)N3)NC2=O)C(=O)N[C@@H](CO)C(=O)N[C@@H](CCCNC(=N)N)C(=O)N[C@@H]([C@@H](C)O)C(=O)N[C@@H](Cc2c[nH]cn2)C(=O)N[C@@H](CCCCN)C(=O)N[C@@H](Cc2c[nH]c3ccccc23)C(=O)N1)C(=O)N[C@@H](Cc1ccccc1)C(N)=O [compound 248] (H-DCLGFMRKCIPDNDKCCRPNLVCSRTHKWCKYIF-NH2; disulfide 2-17, 9-23, 16-30)
- IC50 (hNav1.5; Table 26, use, […]): 6890 nM
- IC50 (hNav1.7; Table 26, use, […]): 150 nM
- IC50 (hNav1.3; Table 26, use, […]): 90 nM

Structure (SMILES): CC[C@H](C)[C@@H]1NC(=O)[C@@H]2CSSC[C@@H]3NC(=O)[C@H](C(C)C)NC(=O)[C@H](CC(C)C)NC(=O)[C@H](CC(N)=O)NC(=O)[C@@H]4CCCN4C(=O)[C@H](CCCNC(=N)N)NC(=O)[C@H](CSSC[C@H](NC(=O)[C@@H](N)CC(=O)O)C(=O)N[C@@H](CC(C)C)C(=O)NCC(=O)N[C@@H](Cc4ccccc4)C(=O)N[C@@H](CCSC)C(=O)N[C@@H](CCCNC(=N)N)C(=O)N[C@@H](CCCCN)C(=O)N2)NC(=O)[C@H](CSSC[C@@H](C(=O)N[C@@H](CCCCN)C(=O)N[C@@H](Cc2ccc(O)cc2)C(=O)N[C@H](C(=O)N[C@@H](Cc2ccccc2)C(N)=O)C(C)C)NC(=O)[C@H](Cc2c[nH]c4ccccc24)NC(=O)[C@H](CCCCN)NC(=O)[C@H](Cc2cnc[nH]2)NC(=O)[C@H](Cc2c[nH]c4ccccc24)NC(=O)[C@H](CCCNC(=N)N)NC(=O)[C@H](CO)NC3=O)NC(=O)[C@H](CCCCN)NC(=O)[C@H](CC(=O)O)NC(=O)[C@H](CC(N)=O)NC(=O)[C@H](CC(=O)O)NC(=O)[C@@H]2CCCN2C1=O [compound 178] (H-DCLGFMRKCIPDNDKCCRPNLVCSRWHKWCKYVF-NH2; disulfide 2-17, 9-23, 16-30)
- IC50 (hNav1.5; Table 22, use, […]): 5840 nM
- IC50 (hNav1.7; Table 22, use, […]): 30 nM
- IC50 (hNav1.3; Table 22, use, […]): 20 nM

Structure (SMILES): CC[C@H](C)[C@@H]1NC(=O)[C@@H]2CSSC[C@@H]3NC(=O)[C@H](C(C)C)NC(=O)[C@H](CC(C)C)NC(=O)[C@H](CC(N)=O)NC(=O)[C@@H]4CCCN4C(=O)[C@H](CCCNC(=N)N)NC(=O)[C@H](CSSC[C@H](NC(=O)[C@@H](N)CC(=O)O)C(=O)N[C@@H](CC(C)C)C(=O)NCC(=O)N[C@@H](C)C(=O)N[C@@H](CCSC)C(=O)N[C@@H](CCCNC(=N)N)C(=O)N[C@@H](CCCCN)C(=O)N2)NC(=O)[C@H](CSSC[C@@H](C(=O)N[C@@H](CCCCN)C(=O)N[C@@H](Cc2ccc(O)cc2)C(=O)N[C@H](C(=O)N[C@@H](Cc2ccccc2)C(N)=O)C(C)C)NC(=O)[C@H](Cc2c[nH]c4ccccc24)NC(=O)[C@H](CCCNC(=N)N)NC(=O)[C@H](Cc2c[nH]cn2)NC(=O)[C@H]([C@@H](C)O)NC(=O)[C@H](CCCNC(=N)N)NC(=O)[C@H](CO)NC3=O)NC(=O)[C@H](CCCCN)NC(=O)[C@H](CC(=O)O)NC(=O)[C@H](CC(N)=O)NC(=O)[C@H](CC(=O)O)NC(=O)[C@@H]2CCCN2C1=O [compound 260] (H-DCLGAMRKCIPDNDKCCRPNLVCSRTHRWCKYVF-NH2; disulfide 2-17, 9-23, 16-30)
- IC50 (hNav1.5; use-dependent block, hNav1.5): 5000 nM
- IC50 (hNav1.7; use-dependent block, hNav1.7): 330 nM
- IC50 (hNav1.3; use-dependent block, hNav1.3): 240 nM

Structure (SMILES): CC[C@H](C)[C@@H]1NC(=O)[C@@H]2CSSC[C@@H]3NC(=O)[C@H](CC(C)C)NC(=O)[C@H](CC(C)C)NC(=O)[C@H](CC(N)=O)NC(=O)[C@@H]4CCCN4C(=O)[C@H](CCCNC(=N)N)NC(=O)[C@H](CSSC[C@H](NC(=O)[C@@H](N)CC(=O)O)C(=O)N[C@@H](CC(C)C)C(=O)NCC(=O)N[C@@H](Cc4ccccc4)C(=O)N[C@@H](CCSC)C(=O)N[C@@H](CCCNC(=N)N)C(=O)N[C@@H](CCCCN)C(=O)N2)NC(=O)[C@H](CSSC[C@@H](C(=O)N[C@@H](CCCCN)C(=O)N[C@@H](Cc2ccc(O)cc2)C(=O)N[C@H](C(=O)N[C@@H](Cc2ccccc2)C(N)=O)C(C)C)NC(=O)[C@H](Cc2c[nH]c4ccccc24)NC(=O)[C@H](CCCCN)NC(=O)[C@H](Cc2c[nH]cn2)NC(=O)[C@H]([C@@H](C)O)NC(=O)[C@H](CCCNC(=N)N)NC(=O)[C@H](CO)NC3=O)NC(=O)[C@H](CCCCN)NC(=O)[C@H](CC(=O)O)NC(=O)[C@H](CC(N)=O)NC(=O)[C@H](CC(=O)O)NC(=O)[C@@H]2CCCN2C1=O [compound 322] (H-DCLGFMRKCIPDNDKCCRPNLLCSRTHKWCKYVF-NH2; disulfide 2-17, 9-23, 16-30)
- IC50 (hNav1.5; Use): 9580 nM
- IC50 (hNav1.7; Use): 90 nM
- IC50 (hNav1.3; Use): 70 nM

Structure (SMILES): CC[C@H](C)[C@@H]1NC(=O)[C@@H]2CSSC[C@@H]3NC(=O)[C@H](C(C)C)NC(=O)[C@H](CC(C)C)NC(=O)[C@H](CC(N)=O)NC(=O)[C@@H]4CCCN4C(=O)[C@H](CCCNC(=N)N)NC(=O)[C@H](CSSC[C@H](NC(=O)[C@@H](N)CC(=O)O)C(=O)N[C@@H](CC(C)C)C(=O)NCC(=O)N[C@@H](C)C(=O)N[C@@H](CCSC)C(=O)N[C@@H](CCCNC(=N)N)C(=O)N[C@@H](CCCCN)C(=O)N2)NC(=O)[C@H](CSSC[C@@H](C(=O)N[C@@H](CCCCN)C(=O)N[C@@H](Cc2ccc(O)cc2)C(=O)N[C@H](C(=O)N[C@@H](Cc2ccccc2)C(N)=O)C(C)C)NC(=O)[C@H](Cc2c[nH]c4ccccc24)NC(=O)[C@H](CCCCNC)NC(=O)[C@H](Cc2c[nH]cn2)NC(=O)[C@H]([C@@H](C)O)NC(=O)[C@H](CCCNC(=N)N)NC(=O)[C@H](CO)NC3=O)NC(=O)[C@H](CCCCN)NC(=O)[C@H](CC(=O)O)NC(=O)[C@H](CC(N)=O)NC(=O)[C@H](CC(=O)O)NC(=O)[C@@H]2CCCN2C1=O [compound 771] (H-DCLGAMRKCIPDNDKCCRPNLVCSRTH[Lys(Me)]WCKYVF-NH2; disulfide 2-17, 9-23, 16-30)
- IC50 (hNav1.5; use-dependent block, hNav1.5): 40100 nM
- IC50 (hNav1.7; use-dependent block, hNav1.7): 1600 nM
- IC50 (hNav1.3; use-dependent block, hNav1.3): 1800 nM
